pKd: −log10 of the molar value. Ends that are not written are not given here.
Legend:
PB1 (6-25) [1] = target: T1, PB1 (6-25) (Influenza A virus, UniProt O89749); type: binding
PB1 (6-25) [2] = target: T1, PB1 (6-25); type: physicochemical
PB1 (6-25) [3] = target: T1, PB1 (6-25); test: biochemical; type: binding
PB1 (6-25) [4] = target: T1, PB1 (6-25); type: physicochemical; conditions: pH 7.4
[5] = type: physicochemical; conditions: diluted to 0.2 mM, negative staining (phosphotungstic acid, pH 7.4), 80 kV
PB1 (6-25) [6] = target: T1, PB1 (6-25); type: physicochemical; remark: listed apart in the source
[7] = Circular dichroism, secondary structure of PB1 (6-25) in solution; type: physicochemical; conditions: CD 194–320 nm, 1 mg/mL solution
Protocol: Circular dichroism (194–320 nm) was measured on PB1 (6-25) 1 mg/mL solution. Spectra were analyzed with CDNN software.

Substance | effect on antiparallel beta-sheets of PB1 (6-25) (PB1 (6-25) [1]) | diameter of aggregates (PB1 (6-25) [2]) | pKd (PB1 (6-25) [3]) | characteristic linear size of structured aggregates (PB1 (6-25) [4]) | formation of structured aggregates, single peptide alone [5] | reversibility of insoluble aggregates (PB1 (6-25) [6]) | alpha-helix content ([7]; CDNN software) [%] | antiparallel beta-sheet content ([7]; CDNN software) [%] | beta-turns content ([7]; CDNN software) [%] | random coil structure content ([7]; CDNN software) [%] | secondary structure in solution ([7]; compared with the molecular dynamics model)
TLLFLKVP-OH [PB1 (6-13), TLLFLKVP] | contributed to increase antiparallel beta-sheets | 500–1000 nm | 3.00 to 3.70 | about 500 nm | not in the samples containing either one of the peptides | could not reverse into soluble forms after dilution or heating | – | – | – | – | –
TLLFLKVPAQNAISTTFPYT [PB1 (6-25), peptide comprised of amino acid residues 6-25 of influenza virus PB1] | – | – | – | – | not in the samples containing either one of the peptides | – | 8 | 30 | 25 | 37 | structure similar to the described model of beta-hairpin

— paper PMC3886529, “Structural Features of the Peptide Homologous to 6-25 Fragment of Influenza A PB1 Protein” (International Journal of Peptides, 2013)
